Measurements as given in US20040068762A1, “Transgenic non-human mammals expressing a reporter nucleic acid under the regulation of androgen response elements” (priority 2002, published 2004).
Where two headings read alike, the source gives them in different places.

Test system: androgen receptor

Compound	inhibition of the testosterone effect (luciferase expression) (bone, Casodex 50 mg/kg p.o. with testosterone 2 mg/kg s.c.) [%]	luciferase response in kidney (inhibition of testosterone effect) (kidney, Casodex 50 mg/kg p.o. with testosterone 2 mg/kg s.c.)	inhibition of the testosterone effect (luciferase expression) (prostate-seminal vesicles, Casodex 50 mg/kg p.o. with testosterone 2 mg/kg s.c.) [%]	inhibition of the testosterone effect (luciferase expression) (quadriceps, Casodex 50 mg/kg p.o. with testosterone 2 mg/kg s.c.) [%]	luciferase induction over untreated (bone, testosterone 2 mg/kg s.c.) [fold]	luciferase response in kidney (testosterone induction) (kidney, testosterone 2 mg/kg s.c.)	luciferase induction over untreated (prostate-seminal vesicles, testosterone 2 mg/kg s.c.) [fold]	luciferase induction over untreated (quadriceps, testosterone 2 mg/kg s.c.) [fold]
CC(O)(CS(=O)(=O)c1ccc(F)cc1)C(=O)Nc1ccc(C#N)c(C(F)(F)F)c1 (centres unmarked) [bicalutamide]	86	No response	90	92	–	–	–	–
C[C@]12CC[C@H]3[C@@H](CCC4=CC(=O)CC[C@@]43C)[C@@H]1CC[C@@H]2O [testosterone]	–	–	–	–	3.3	No response	5.6	5.8
